# “And” between values parts separate entries of the source, which are not always exact repeats. Equal entries are not always repeated.
# Key:
# [1] = system: TNF-α production in RAW264.7 cells; test: TNF-α production inhibition using ELISA assay; format: cell-based; settings: Mus musculus, LPS 10 ng/mL
# Description: A TNF-α production inhibition ability of the sample in RAW264.7 cells was evaluated using a TNF-α ELISA assay.
# (§1) Specifically, subcultured RAW264.7 cells were aliquoted into a 6-well dish at 1.5×10^6 cells/well, and cultured for 24 hours at 37° C. in an incubator containing 5% carbon dioxide, and then a culture media was replaced with a serum-free media. Then, each sample was diluted by concentration and treated onto the cells with LPS (final 10 ng/mL). After culturing for 24 hours, the cell culture medium was recovered and the TNF-α ELISA assay was performed.
# (§2) 50 μL of an assay diluent was put into each well, and 50 μL of each of a standard solution and a cell culture solution were added to each well and reacted at room temperature for 2 hours. Thereafter, the reaction solution was removed from each well, washed with a wash buffer, 100 μL of TNF-α conjugate was added, and after reacting at room temperature for 2 hours, the reaction solution was removed from each well and washing is performed with a wash buffer.
# (§3) Thereafter, 100 μL of a substrate solution was added and a reaction under light blocking was carried out at room temperature, and then 100 μL of a stop solution was added, and an absorbance was measured at 450 and 570 nm. Dexamethasone was used as a positive control group. After the test was conducted once, a TNF-α synthesis amount was calculated by substituting the absorbance value into a TNF-α standard solution calibration curve, and then the TNF-α production inhibition rate (%) was calculated using Equation 3 below, and expressed as the mean±standard deviation of the experiment.
# [2] = system: IL-6 production in RAW264.7 cells; test: IL-6 production inhibition using ELISA assay; format: cell-based, mouse; settings: LPS 10 ng/mL
# Description: An IL-6 ELISA assay was used to evaluate an IL-6 production inhibition ability of the sample in RAW264.7 cells.
# as §1, with “cells/well” for “cells/well,”, “an IL-6” for “the TNF-α”
# as §2, with “IL-6” for “TNF-α”, “reaction” for “reacting”
# as §3, with “Next,” for “Thereafter,”, “an IL-6 production” for “a TNF-α synthesis”, “IL-6” for “TNF-α”, “4” for “3”
# RAW264.7 cells = test: Cell viability measurement using MTT assay; format: cell-based, mouse; settings: vs untreated group
# Description: In order to evaluate a cell viability of the glycerol glucoside-based compound sample (EPS-S), an MTT assay was performed.
# Specifically, subcultured RAW264.7 cells and HDF cells were aliquoted into a 96-well plate at 1×10^5, respectively, and cultured for 24 hours at 37° C. in an incubator containing 5% carbon dioxide, and then, a culture media was replaced with a serum-free media. Then, each sample was treated onto each cell by concentration. After culturing for 24 hours, an MTT solution was put into each well, reacted for 2 hours under light blocking, a supernatant was removed, a formed formazan was completely dissolved in DMSO, and an absorbance was measured at 540 nm with a microplate reader. In such a case, SDS was used as a positive control group. The test result value was calculated as in Equation 1 below and expressed as the cell viability compared to an untreated group, and was expressed as a mean±standard deviation.
# p-IKK = test: Western blot of p-IKK protein expression; format: cell-based, mouse; settings: RAW264.7 cells, LPS, 15 minutes, 100 ppm; untreated = 100, negative control 1001.95
# Description: (§4) A western blot was performed as follows to observe p-IKK, p-IκB and p-NF-κB protein expression abilities of the glycerol glucoside-based compound sample (EPS-S).
# (§5) Specifically, the subcultured mouse-derived macrophage line, RAW264.7 cells, were aliquoted in a 60 mm dish at 1.5×10^6 cells, and cultured for 24 hours at 37° C. in an incubator containing 5% carbon dioxide, and then a culture media was replaced with a serum-free media. Then, the glycerol glucoside-based compound sample (EPS-S) was diluted by concentration and treated onto the cells with LPS (final 1 μg/mL). After culturing for 15 minutes, protein was lysed (lysis) to recover cytoplasmic and nuclear extracts, and proteins were separated by size through SDS-PAGE. After transferring the protein to a membrane through a transfer, a primary antibody was attached thereto and reacted at 4° C. overnight. After the primary reaction, a secondary antibody was attached thereto, and reacted at room temperature for 1 hour, an ECL solution was sprayed on the entire surface, and a band image was obtained through a bioimage analyzer. After obtaining a band intensity of each band through Image J, normalization was performed using β-acitn and substituted in Equation 7 below to obtain the expression rate of p-IKK, p-IκB and p-NF-κB proteins in the treated sample group compared to the untreated group.
# p-IκB = test: Western blot of p-IκB protein expression; format: cell-based, mouse; settings: RAW264.7 cells, LPS, 15 minutes, 100 ppm; untreated = 100, negative control 390.06
# Description: as §4, §5
# p-NF-κB = test: Western blot of p-NF-κB protein expression; format: cell-based, mouse; settings: RAW264.7 cells, LPS, 15 minutes, 100 ppm; untreated = 100, negative control 222.25
# Description: as §4, §5
smiles,measurement,setting,value
C[C@@H]1C[C@H]2[C@@H]3CCC4=CC(=O)C=C[C@]4(C)[C@@]3(F)[C@@H](O)C[C@]2(C)[C@@]1(O)C(=O)CO [Dexamethasone],inhibition at 1 µM,"[1]; 24 h, 1 μM, read-out: TNF-α production inhibition ability",13.8%
same,inhibition at 5 µM,"[1]; 24 h, 5 μM, read-out: TNF-α production inhibition ability",34.7%
same,inhibition at 10 µM,"[1]; 24 h, 10 μM, read-out: TNF-α production inhibition ability",46.5%
same,inhibition at 20 µM,"[1]; 24 h, 20 μM, read-out: TNF-α production inhibition ability",52.1%
same,inhibition at 50 µM,"[1]; 24 h, 50 μM (text b137), read-out: TNF-α production inhibition rate",65%
same,inhibition at 80 µM,"[1]; 24 h, 80 μM, read-out: TNF-α production inhibition ability",65.05 ± 0.6%
same,IL-6 production inhibition ability,"[2]; 24 h, 10 Mm (10 μM)",55.97%
same,inhibition at 1 µM,"[2]; Mus musculus, RAW264.7, 24 h, 1 μM, read-out: IL-6 production inhibition ability",12.7%
same,inhibition at 5 µM,"[2]; Mus musculus, RAW264.7, 24 h, 5 μM, read-out: IL-6 production inhibition ability",48.4%
same,inhibition at 20 µM,"[2]; Mus musculus, RAW264.7, 24 h, 20 μM, read-out: IL-6 production inhibition ability",63.3%
same,inhibition at 50 µM,"[2]; Mus musculus, RAW264.7, 24 h, 50 μM (text b146), read-out: IL-6 production inhibition rate",88.7%
COCC(COC)OC1OC(CO)C(O)C(O)C1O (centres unmarked) [EPS-S],cell viability,"RAW264.7 cells; 24 h, 1 ppm",103.36% and 103.36 ± 0.88%
same,cell viability,"RAW264.7 cells; 24 h, 10 ppm",104.47% and 104.47 ± 3.61%
same,cell viability,"RAW264.7 cells; 24 h, 100 ppm",108.58% and 108.58 ± 1.99%
same,cell viability,"RAW264.7 cells; 24 h, 1,000 ppm",113.79% and 113.79 ± 0.13%
same,inhibition at 10 ppm,"[1]; 24 h, 10 ppm, read-out: TNF-α production inhibition ability",29.7%
same,inhibition at 100 ppm,"[1]; 24 h, 100 ppm, read-out: TNF-α production inhibition ability",34.9%
same,inhibition at 500 ppm,"[1]; 24 h, 500 ppm, read-out: TNF-α production inhibition ability",49.7%
same,inhibition at 1000 ppm,"[1]; 24 h, 1,000 ppm, read-out: TNF-α production inhibition ability",77.6%
same,inhibition at 10 ppm,"[2]; Mus musculus, RAW264.7, 24 h, 10 ppm, read-out: IL-6 production inhibition ability",10.1%
same,inhibition at 100 ppm,"[2]; Mus musculus, RAW264.7, 24 h, 100 ppm, read-out: IL-6 production inhibition ability",23.8%
same,inhibition at 500 ppm,"[2]; Mus musculus, RAW264.7, 24 h, 500 ppm, read-out: IL-6 production inhibition ability",36.3%
same,inhibition at 1000 ppm,"[2]; Mus musculus, RAW264.7, 24 h, 1,000 ppm, read-out: IL-6 production inhibition ability",92.4%
same,p-IKK protein expression rate,p-IKK,514.98%
same,p-IκB protein expression rate,p-IκB,203.52%
same,p-NF-κB protein expression rate,p-NF-κB,185.30%

# Reference: patent US20230140972A1, “GLYCEROL GLUCOSIDE-BASED COMPOUND AND COMPOSITION COMPRISING SAME FOR ULTRAVIOLET LIGHT SHIELD OR ANTI-INFLAMMATION” (ATHENA CO., LTD., priority 2020, published 2023)
